# Results taken from article PMC6792352, “Limited Chemical Structural Diversity Found to Modulate Thyroid Hormone Receptor in the Tox21 Chemical Library” (Environmental Health Perspectives, 2019).
# Structures can show the parent of a compound that is named as a salt.
# Test: in vitro
# Conditions: rat, gh3-tre-luc cells, AC50 (uM) modified / 1000
row,Compound,CC50 at 24 h [µM]
1,"CCCCC(=O)N(C)C [N,N-Dimethylpentanamide]",> 90
2,COc1cc(Cl)ccc1Oc1ccc(Cl)cc1Cl [Methyl triclosan],60.4
3,C[N+](C)(C)CC1CO1 (stereo not shown) [Glycidyl trimethylammonium chloride],> 90
4,Nc1cc[nH]c(=O)n1 [Cytosine],> 90
5,C[Se]CC[C@H](N)C(=O)O [Selenomethionine],> 50
6,C[N+]1(CC2COC(c3ccccc3)(C3CCCCC3)O2)CCCCC1 (stereo not shown) [Oxapium iodide],> 50
7,Cc1ccncc1 [4-Methylpyridine],> 100
8,"CC1(C)CC(OC(=O)CCCCCCCCC(=O)OC2CC(C)(C)NC(C)(C)C2)CC(C)(C)N1 [Bis(2,2,6,6-tetramethyl-4-piperidyl) sebacate]",1.55
9,CCCCN(CCC(=O)OCC)C(C)=O [Ethyl 3-(N-butylacetamido)propionate],> 90
10,CCCOCCC [Propyl ether],> 90
11,Cc1cc(Nc2ccccc2C(=O)O)ccc1Cl [2-[(4-Chloro-3-methylphenyl)amino]benzoic acid],> 50
12,NC(=O)C1(N2CCCCC2)CCN(CCCC(=O)c2ccc(F)cc2)CC1 [Pipamperone dihydrochloride],> 50
13,O=C1c2ccccc2C(=O)C1c1nc2ccccc2c(Br)c1O [C.I. Disperse Yellow 64],> 90
14,CC[C@@H](NC(C)C)[C@@H](O)c1ccc(O)c2[nH]c(=O)ccc12 [Procaterol],> 50
15,CC(Oc1ccccc1)C(=O)N[C@@H]1C(=O)N2[C@@H]1SC(C)(C)[C@@H]2C(=O)O (stereo partly shown) [Phenethicillin potassium],> 20
16,OC(CCN1CCCCC1)(c1ccccc1)c1ccccc1 [Pridinol],25.8
17,N#CCN(CC#N)CCN(CC#N)CC#N [(Ethylenedinitrilo)tetraacetonitrile],> 90
18,Cc1onc(-c2c(F)cccc2Cl)c1C(=O)N[C@@H]1C(=O)N2[C@@H]1SC(C)(C)[C@@H]2C(=O)O [Floxacillin sodium salt],> 50
19,"CC(CO)CO [2-Methylpropane-1,3-diol]",> 100
20,CCC1(CC)C(=O)NC(=O)NC1=O [Sodium barbital],> 90

row,Compound,CC50 at 24 h [µM]
1,OC[C@H](Cc1cccc(O)c1)[C@H](CO)Cc1cccc(O)c1 [(-)-Enterodiol],> 90
2,CCCCN(CCCC)CCCC [Tributylamine],> 90
3,C=C[C@@]1(C)CC(=O)[C@]2(O)[C@@]3(C)[C@@H](O)CCC(C)(C)[C@@H]3[C@H](O)[C@H](OC(C)=O)[C@@]2(C)O1 [Forskolin],> 90
4,CC(=O)c1ccc2c(c1)[C@H](NC(=O)c1ccc(F)cc1)[C@@H](O)C(C)(C)O2 [Carabersat],51.8
5,OC[C@H]1O[C@@H](OCCc2ccc(O)cc2)[C@H](O)[C@@H](O)[C@@H]1O [Salidroside],> 50
6,COc1ccc(-c2ccccc2)cc1NNC(=O)OC(C)C [Bifenazate],87.4
7,CCCCC/C=C\C/C=C\C/C=C\CCCCC(=O)O [Gamolenic acid],> 50
8,COC(=O)c1sccc1S(N)(=O)=O [Methyl 3-sulfamoylthiophene-2-carboxylate],> 90
9,Cc1cc(CC(C)CC(C)(C)C)n(O)c(=O)c1 (stereo not shown) [Piroctone olamine],33
10,"CC1(C)Cc2cccc(O)c2O1 [2,3-Dihydro-2,2-dimethyl-7-benzofuranol]",> 100
11,CN1CC(=O)N=C1NC(=O)Nc1cccc(Cl)c1 [Fenobam],> 50
12,C[C@H]1O[C@H](O[C@H]2[C@H](O)[C@@H](O)[C@@H](O)[C@H](O)[C@@H]2O)[C@@H](N)C[C@@H]1NC(=N)C(=O)O [Kasugamycin hydrochloride],> 90
13,C=CCCCCCCCCC(=O)O [10-Undecenoic acid],> 90
14,O=C(O)CNC(=O)c1ccc(CO)o1 [5-(Hydroxymethyl-2-furoyl)glycine],> 90
15,CCCC1O[C@@H]2C[C@H]3[C@@H]4CCC5=CC(=O)C=C[C@]5(C)[C@H]4[C@@H](O)C[C@]3(C)[C@]2(C(=O)CO)O1 (stereo partly shown) [Budesonide],> 90
16,"c1ccc(Nc2ccc(Nc3ccccc3)cc2)cc1 [N,N'-Diphenyl-p-phenylenediamine]",33.3
17,"CC(O)CO (stereo not shown) [1,2-Propylene glycol]",> 90
18,"CC(=O)CCC(C)=O [2,5-Hexanedione]",> 90
19,CO[C@H]1/C=C/O[C@@]2(C)Oc3c(C)c(O)c4c(O)c(c(/C=N/N5CCN(C6CCCC6)CC5)c(O)c4c3C2=O)NC(=O)/C(C)=C\C=C\[C@H](C)[C@H](O)[C@@H](C)[C@@H](O)[C@@H](C)[C@H](OC(C)=O)[C@@H]1C [Rifapentine],22.8
20,CN1C(=O)CC(c2ccccc2)C1=O (stereo not shown) [Phensuximide],> 50
